This note sets out measurements from ChEMBL document CHEMBL1201862, “PubChem BioAssay data set” (2004).

Activity calls are given as the source filed them. Cut-off read from the data, not from the text of the source, for most assays here: actives have a measured IC50 and inactives only a lower limit. Where only a bound is given, the exact number is not on record here.

In one test the target is T1, Caspase-3 (Homo sapiens, UniProt P42574).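 Note: Dose-response selectivity test against caspase-3 for candidate inhibitors of sentrin-specific proteases (SENPs).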
T1 sequence (P42574 whole entry): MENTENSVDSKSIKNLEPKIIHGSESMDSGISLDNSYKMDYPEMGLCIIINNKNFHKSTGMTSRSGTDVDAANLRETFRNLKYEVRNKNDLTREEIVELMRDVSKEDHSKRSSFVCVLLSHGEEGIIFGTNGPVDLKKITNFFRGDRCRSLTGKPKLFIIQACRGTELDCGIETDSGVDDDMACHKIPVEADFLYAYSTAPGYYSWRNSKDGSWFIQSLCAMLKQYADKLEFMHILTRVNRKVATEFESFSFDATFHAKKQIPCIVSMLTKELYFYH
It is filed as functional.

Test [1] deals with T2, Sentrin-specific protease 6 (Homo sapiens, UniProt Q9GZR1).
T2 sequence (Q9GZR1 whole entry): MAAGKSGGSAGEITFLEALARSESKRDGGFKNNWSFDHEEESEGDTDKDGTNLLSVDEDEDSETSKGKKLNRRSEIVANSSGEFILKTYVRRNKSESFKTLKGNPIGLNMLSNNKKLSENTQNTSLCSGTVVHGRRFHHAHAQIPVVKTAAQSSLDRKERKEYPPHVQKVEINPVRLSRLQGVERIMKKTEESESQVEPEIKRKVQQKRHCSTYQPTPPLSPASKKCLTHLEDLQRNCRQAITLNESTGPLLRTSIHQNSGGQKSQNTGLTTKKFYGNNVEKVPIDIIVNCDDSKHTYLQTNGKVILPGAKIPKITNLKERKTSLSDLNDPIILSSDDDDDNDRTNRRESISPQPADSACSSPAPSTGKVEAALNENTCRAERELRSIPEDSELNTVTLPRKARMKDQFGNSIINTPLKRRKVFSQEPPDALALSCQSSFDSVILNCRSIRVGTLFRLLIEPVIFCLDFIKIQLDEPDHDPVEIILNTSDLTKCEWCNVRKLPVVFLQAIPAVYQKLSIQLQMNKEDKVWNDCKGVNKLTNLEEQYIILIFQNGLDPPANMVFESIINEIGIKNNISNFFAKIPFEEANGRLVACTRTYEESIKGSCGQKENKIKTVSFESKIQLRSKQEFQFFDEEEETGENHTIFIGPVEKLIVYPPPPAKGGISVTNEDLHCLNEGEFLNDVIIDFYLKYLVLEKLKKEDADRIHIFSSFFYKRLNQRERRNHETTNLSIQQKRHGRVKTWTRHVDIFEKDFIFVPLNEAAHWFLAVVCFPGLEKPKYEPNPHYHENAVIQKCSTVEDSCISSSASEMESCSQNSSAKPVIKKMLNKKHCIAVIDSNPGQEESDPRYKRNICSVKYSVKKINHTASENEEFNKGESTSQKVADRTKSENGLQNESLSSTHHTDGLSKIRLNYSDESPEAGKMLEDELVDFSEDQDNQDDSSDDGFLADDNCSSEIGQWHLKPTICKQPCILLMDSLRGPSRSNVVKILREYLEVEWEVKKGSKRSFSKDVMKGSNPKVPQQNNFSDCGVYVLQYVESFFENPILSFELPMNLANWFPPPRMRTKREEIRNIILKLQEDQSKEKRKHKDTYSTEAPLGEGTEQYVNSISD
Type of test: functional.

In test [2] the target is Tyrosyl-DNA phosphodiesterase 2 (Homo sapiens, UniProt O95551). Nature of the test: potency against TDP2 phosphodiesterase activity – biochemical, epi absorbance, IC50, dose response (AID 743297).
Tyrosyl-DNA phosphodiesterase 2, sequence (O95551 whole entry): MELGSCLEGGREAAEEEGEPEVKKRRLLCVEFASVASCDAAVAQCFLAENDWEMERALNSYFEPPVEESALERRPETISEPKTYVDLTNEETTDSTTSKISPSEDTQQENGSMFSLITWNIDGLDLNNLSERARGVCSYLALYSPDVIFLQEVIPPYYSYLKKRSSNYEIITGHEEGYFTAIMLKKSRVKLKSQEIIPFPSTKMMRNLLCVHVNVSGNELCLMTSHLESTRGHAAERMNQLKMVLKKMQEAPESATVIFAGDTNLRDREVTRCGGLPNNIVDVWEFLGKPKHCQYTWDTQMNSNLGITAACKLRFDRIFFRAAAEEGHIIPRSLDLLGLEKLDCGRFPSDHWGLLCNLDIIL
Test [3] concerns the target T3, Sentrin-specific protease 8 (Homo sapiens, UniProt Q96LD8).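 Note: luminescence read-out of SENP8 inhibition, dose-response confirmation following an ultra-high-throughput screen.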
T3 sequence (Q96LD8 whole entry): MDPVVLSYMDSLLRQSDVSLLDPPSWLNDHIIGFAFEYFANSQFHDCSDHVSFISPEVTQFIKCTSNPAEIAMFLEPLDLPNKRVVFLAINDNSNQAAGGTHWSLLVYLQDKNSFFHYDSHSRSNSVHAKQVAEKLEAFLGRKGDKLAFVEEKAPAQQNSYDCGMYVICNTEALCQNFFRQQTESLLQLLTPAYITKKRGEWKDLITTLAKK
It is filed as functional.

In test [4] the target is T4, Sentrin-specific protease 7 (Homo sapiens, UniProt Q9BQF6).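 Note: Luminescence-based dose-response confirmation of ultra-high-throughput screening hits, measuring inhibition of SENP7.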
T4 sequence (Q9BQF6 whole entry): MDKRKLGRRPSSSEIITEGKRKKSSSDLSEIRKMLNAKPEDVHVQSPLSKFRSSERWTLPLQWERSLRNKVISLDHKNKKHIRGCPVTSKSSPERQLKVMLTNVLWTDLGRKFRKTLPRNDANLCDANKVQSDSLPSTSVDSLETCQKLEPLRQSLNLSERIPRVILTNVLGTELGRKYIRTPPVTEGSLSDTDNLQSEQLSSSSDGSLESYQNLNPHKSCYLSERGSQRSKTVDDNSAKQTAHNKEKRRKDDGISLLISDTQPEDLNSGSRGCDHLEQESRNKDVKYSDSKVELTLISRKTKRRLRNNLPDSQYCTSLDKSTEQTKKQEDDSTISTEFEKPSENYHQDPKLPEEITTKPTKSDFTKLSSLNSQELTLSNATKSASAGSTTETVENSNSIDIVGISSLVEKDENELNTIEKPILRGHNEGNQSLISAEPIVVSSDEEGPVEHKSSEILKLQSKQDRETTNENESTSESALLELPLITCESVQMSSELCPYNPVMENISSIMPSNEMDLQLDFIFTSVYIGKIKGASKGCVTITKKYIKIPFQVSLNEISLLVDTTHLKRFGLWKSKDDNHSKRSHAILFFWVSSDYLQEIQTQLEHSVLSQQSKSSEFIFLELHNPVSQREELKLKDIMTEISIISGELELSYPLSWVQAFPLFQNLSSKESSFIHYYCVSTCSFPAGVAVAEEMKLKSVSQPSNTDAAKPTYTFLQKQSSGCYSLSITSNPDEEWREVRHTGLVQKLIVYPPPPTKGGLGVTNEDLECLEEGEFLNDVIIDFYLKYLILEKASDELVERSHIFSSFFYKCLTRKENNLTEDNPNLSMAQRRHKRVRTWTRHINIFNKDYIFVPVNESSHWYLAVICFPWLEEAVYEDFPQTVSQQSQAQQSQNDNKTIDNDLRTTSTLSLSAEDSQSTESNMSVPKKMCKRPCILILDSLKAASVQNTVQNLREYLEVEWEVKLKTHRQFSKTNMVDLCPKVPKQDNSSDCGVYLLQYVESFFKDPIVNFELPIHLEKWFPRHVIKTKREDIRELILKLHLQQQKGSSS
Type of test: functional.

Test [5] concerns the target Serine/threonine-protein phosphatase (Homo sapiens, UniProt Q9BPW0). Nature of the test: inhibition of protein phosphatase 5 activity – biochemical, fluorescence, dose response (AID 2395).
Test [6] has as its target T5, Ubiquitin-conjugating enzyme E2 N (Homo sapiens, UniProt P61088).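 Note: Dose-response confirmation in a TR-FRET assay detecting UBC13-driven polyubiquitin chain formation, inhibition measured.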
T5 sequence (P61088 whole entry): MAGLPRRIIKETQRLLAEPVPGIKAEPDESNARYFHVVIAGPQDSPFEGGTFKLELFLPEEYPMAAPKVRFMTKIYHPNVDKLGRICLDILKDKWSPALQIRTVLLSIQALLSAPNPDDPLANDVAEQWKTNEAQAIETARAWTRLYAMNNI
It is filed as functional.

Serine/threonine-protein phosphatase, sequence (Q9BPW0 whole entry): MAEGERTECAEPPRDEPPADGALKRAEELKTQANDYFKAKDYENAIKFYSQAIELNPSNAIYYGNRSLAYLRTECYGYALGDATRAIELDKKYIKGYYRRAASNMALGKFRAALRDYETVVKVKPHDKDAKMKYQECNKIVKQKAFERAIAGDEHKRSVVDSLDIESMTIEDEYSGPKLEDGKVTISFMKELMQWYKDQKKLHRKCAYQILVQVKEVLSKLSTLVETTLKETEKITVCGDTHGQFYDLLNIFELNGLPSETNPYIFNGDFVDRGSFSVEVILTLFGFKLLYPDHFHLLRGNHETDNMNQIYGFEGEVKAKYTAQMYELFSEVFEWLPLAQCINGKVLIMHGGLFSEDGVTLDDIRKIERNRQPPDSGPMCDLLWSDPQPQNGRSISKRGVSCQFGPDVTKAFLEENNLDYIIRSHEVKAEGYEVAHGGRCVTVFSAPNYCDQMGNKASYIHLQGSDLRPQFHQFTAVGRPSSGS

As usually defined, the IC50 is the point on the concentration scale where inhibition reaches its midpoint. With `COc1cc2c(cc1OC)-c1c(OC)c(OC)cc3c1C(C2)N(C)CC3` (configuration not stated), the IC50 on Caspase-3 is 0.907 µM (active); in test [1] it was 1.86 µM (active); in test [2], 4.6 µM (active); in test [3], 5.47 µM (active); in test [4], 4.63 µM (active).
Regarding `CCc1ccc(S(=O)(=O)/N=C2\C=C(Nc3cccc(C(=O)O)c3)C(=O)c3ccccc32)cc1`, the figures for the IC50 in test [5] and in test [2] were 6.85 µM (active) and 2.2 µM (active), respectively.
As to `CCCCCCCCCCOC(=O)Cn1c(COc2cccc(OC)c2)[n+](C)c2ccccc21`, the IC50 in test [6] is > 20 µM (inactive).
For `COc1cc(OC)c(NC2=CC(=O)C(=O)c3ccccc32)cc1Cl`, the IC50 on Caspase-3 was 12.2 µM (active); in test [1] it was 2.25 µM (active); in test [3], 3.62 µM (active); in test [4], 4.56 µM (active).
